From patent US20150152395A1, “CHIMERIC LUCIFERASES” (Connecticut College, priority 2012, published 2015) come the findings set out here.

What all share (test): Steady-state kinetic constants, bioluminescence activity
For experiment [1], the target named is Photinus pyralis luciferase, recombinant wild type (PpyWT), SEQ ID NO: 4, with N-terminal peptide GPLGS (Photinus pyralis, UniProt P08659). It counts as biochemical.
Experiment [2] addresses T1, Photinus pyralis luciferase variant Ppy GR-TS (Photinus pyralis, UniProt P08659, A215L/E354K/F250S/F295L/G246A/I232A/T214A/V241I).
T1 construct: N-terminal GPLGS; pGEX-6P-2 GST fusion (tag cleaved), E. coli BL21
It counts as biochemical.

Experiment [3] has as its target T2, 6×His-PpyWT, Photinus pyralis luciferase PpyWT with N-terminal peptide MRGSHHHHHHGS (SEQ ID NO: 27) in place of GPLGS (Photinus pyralis, UniProt P08659).
T2 construct: pQE-30, E. coli; Ni-NTA purified
It counts as biochemical.

Experiment [4] addresses T3, Photinus pyralis luciferase variant Ppy WT-TS5/I351V, PpyWT-TS (SEQ ID NO: 22) with Ile457Val/Ala482Gly/His489Lys/Ala503Asn/Lys543Gln/Ile351Val, SEQ ID NO: 12 (Photinus pyralis, UniProt P08659, A215L/A482G/A503N/E354K/F295L/H489K/I232A/I351V/I457V/K543Q/T214A).
T3 construct: N-terminal GPLGS; pGEX-6P-2 GST fusion (tag cleaved), E. coli BL21
It counts as biochemical.

The target in experiment [5] is T4, Photinus pyralis luciferase PpyWT variant Ppy S284T (Ser284Thr) (Photinus pyralis, UniProt P08659, S284T).
T4 construct: pGEX-6P-2 GST fusion (tag cleaved), E. coli BL21
T4 sequence (P08659 whole entry S284T, the tested form may be a part): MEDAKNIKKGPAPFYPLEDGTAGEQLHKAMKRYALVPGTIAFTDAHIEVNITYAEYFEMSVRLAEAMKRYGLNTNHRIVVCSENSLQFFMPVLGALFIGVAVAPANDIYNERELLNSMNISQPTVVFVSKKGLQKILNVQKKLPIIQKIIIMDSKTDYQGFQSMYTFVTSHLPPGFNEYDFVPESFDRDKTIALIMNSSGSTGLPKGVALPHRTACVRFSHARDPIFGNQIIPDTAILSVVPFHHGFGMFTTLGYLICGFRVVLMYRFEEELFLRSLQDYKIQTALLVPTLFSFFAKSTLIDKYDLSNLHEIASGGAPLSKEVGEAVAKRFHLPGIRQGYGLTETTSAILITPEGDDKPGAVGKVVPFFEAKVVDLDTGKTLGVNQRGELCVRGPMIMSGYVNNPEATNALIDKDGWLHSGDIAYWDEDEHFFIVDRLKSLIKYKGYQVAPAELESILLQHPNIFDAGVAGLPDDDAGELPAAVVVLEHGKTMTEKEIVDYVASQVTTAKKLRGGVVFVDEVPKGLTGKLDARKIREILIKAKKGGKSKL
It counts as biochemical.

Experiment [6] deals with T5, Photinus pyralis luciferase PpyWT variant Ppy5, Ile457Val/Ala482Gly/His489Lys/Ala503Asn/Lys543Gln, SEQ ID NO: 10 (Photinus pyralis, UniProt P08659, A482G/A503N/H489K/I457V/K543Q).
T5 construct: pGEX-6P-2 GST fusion (tag cleaved), E. coli BL21
T5 sequence (P08659 whole entry I457V/A482G/H489K/A503N/K543Q, the tested form may be a part): as the sequence (P08659 whole entry S284T, the tested form may be a part) above, with T284S, I457V, A482G, H489K, A503N, K543Q counted along it
It counts as biochemical.

The test system of experiment [7] is PpyLit (chimeric luciferase, SEQ ID NO: 8) variant I232A/E354K. It counts as biochemical, Photinus pyralis / Luciola italica. The procedure:
Reactions were initiated by injection of solutions of the substrate being maintained at saturating concentration. Kinetic constants were determined using a nonlinear least squares method of the Enzyme Kinetics Pro software (SynTex), which fits data from the Michalis-Menten equation to a rectangular hyperbola. The corresponding kcat values were obtained by dividing the Vmax values by the amount (μmol) of each luciferase in the assay mixtures.

Setting [8] is: pH 7.8, LH2 saturating, read-out: Km Mg-ATP.
Where [9] appears, read: read-out: Km Mg-ATP, pH 7.8, LH2 saturating.

T2 sequence (P08659 whole entry): as the sequence (P08659 whole entry S284T, the tested form may be a part) above, with T284S counted along it
Chain of Photinus pyralis luciferase, recombinant wild type (PpyWT), SEQ ID NO: 4, with N-terminal peptide GPLGS (P08659 whole entry): as the sequence (P08659 whole entry S284T, the tested form may be a part) above, with T284S counted along it
T3 sequence (P08659 whole entry T214A/A215L/I232A/F295L/I351V/E354K/I457V/A482G/H489K/A503N/K543Q, the tested form may be a part): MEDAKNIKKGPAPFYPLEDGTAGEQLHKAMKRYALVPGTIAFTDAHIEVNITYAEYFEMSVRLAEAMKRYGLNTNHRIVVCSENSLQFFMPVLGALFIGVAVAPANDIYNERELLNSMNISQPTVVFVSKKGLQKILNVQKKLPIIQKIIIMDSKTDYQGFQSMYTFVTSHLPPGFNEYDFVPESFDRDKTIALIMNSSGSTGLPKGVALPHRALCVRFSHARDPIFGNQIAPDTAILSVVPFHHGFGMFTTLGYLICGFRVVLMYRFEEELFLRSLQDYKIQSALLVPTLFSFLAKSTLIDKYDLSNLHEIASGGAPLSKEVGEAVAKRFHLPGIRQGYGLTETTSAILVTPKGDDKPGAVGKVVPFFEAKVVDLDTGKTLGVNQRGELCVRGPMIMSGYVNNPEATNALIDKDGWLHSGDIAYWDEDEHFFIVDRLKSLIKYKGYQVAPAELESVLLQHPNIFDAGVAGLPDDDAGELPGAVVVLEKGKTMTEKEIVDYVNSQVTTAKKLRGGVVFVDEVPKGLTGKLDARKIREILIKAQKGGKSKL
T1 sequence (P08659 whole entry T214A/A215L/I232A/V241I/G246A/F250S/F295L/E354K, the tested form may be a part): as the sequence (P08659 whole entry T214A/A215L/I232A/F295L/I351V/E354K/I457V/A482G/H489K/A503N/K543Q, the tested form may be a part) above, with V241I, G246A, F250S, V351I, V457I, G482A, K489H, N503A, Q543K counted along it

Regarding `Nc1ncnc2c1ncn2[C@@H]1O[C@H](COP(=O)(O)OP(=O)(O)OP(=O)(O)O)[C@@H](O)[C@H]1O` [Mg-ATP], the kcat/Km was found to be 2090 ± 100 M⁻¹ s⁻¹ in experiment [1] (kcat divided by Mg-ATP Km); 500 ± 100 M⁻¹ s⁻¹ in experiment [2] (kcat divided by Mg-ATP Km); 1930 ± 110 M⁻¹ s⁻¹ in experiment [3] (kcat divided by Mg-ATP Km); 3160 ± 70 M⁻¹ s⁻¹ in experiment [4] (kcat divided by Mg-ATP Km); 630 ± 140 M⁻¹ s⁻¹ in experiment [5] (kcat divided by Mg-ATP Km); 4310 ± 120 M⁻¹ s⁻¹ in experiment [6] (kcat divided by Mg-ATP Km). Further, the kcat/Km in experiment [7] (kcat divided by Mg-ATP Km) was 3290 ± 100 M⁻¹ s⁻¹. For the same compound, the Km in experiment [1] (setting [8]) was 86 ± 7 µM; in experiment [2] (setting [9]), 163 ± 16 µM; in experiment [3] (setting [8]), 93 ± 9 µM; in experiment [4] (setting [9]) it was 79 ± 5 µM; in experiment [5] (setting [9]), 79 ± 9 µM; in experiment [6] (setting [9]), 72 ± 7 µM. Also, the Km in experiment [7] (setting [8]) turned out to be 76 ± 4 µM.
